From a melting point compilation (Tetko et al.; mined from patent text by program, amines drawn as free bases though some values may be those of a salt)

SMILES | melting point
CNC(=O)c1ccccc1Nc1nc(Nc2cc3c(cc2OC)CC(=O)N(CCCN2CCOCC2)CC3)ncc1Cl | 92 to 100 °C
O=C(NCC12CC3CC(CC(C3)C1)C2)c1cc(N2CC2)ccc1Cl | 154 to 155 °C
CCOC(=O)C1=C(C#N)Nc2nccn2C1c1cccc([N+](=O)[O-])c1 (stereo unspecified) | 260 to 261 °C
Nc1nc(-c2ccc(CCNC(=O)C(F)(F)F)cc2)cs1 | 180 to 182 °C
COC(=O)CCc1cccc(Cl)c1C(=O)CCCNC(C)=O | 51 to 52 °C
CSC(CC(=O)O)c1ccncc1 (stereo unspecified) | 187 to 189 °C
CC12CCC(C(=O)O)=CC1=CCC1C2CCC2(C)C(C(=O)CCC3CCCCC3)CCC12 (stereo unspecified) | 247 °C
Cc1ccc(S(=O)(=O)OCC2COc3ccc4c(c3O2)CCO4)cc1 (stereo unspecified) | 95 to 96 °C
O=c1[nH]ccc2c1c(O)nc1cc(Cl)c(Cl)cc12 | > 350 °C
COC(=O)c1nc(C)n2c1CNC(c1ccccc1)c1cc(Cl)ccc1-2 (stereo unspecified) | 233 to 235 °C
COC(=O)N(C(=O)C(=O)c1cn(Cc2ccc(Cl)cc2)c2ccccc12)c1ccc2ncccc2c1 | 178 °C
Cc1cc(-c2cccc(C3=Nc4ccc(-n5cccc5)cc4NC(=O)C3)c2)ccn1 | 206 °C
O=C1NCC(Cc2ccccc2Oc2ccccc2)O1 (stereo unspecified) | 100 to 101 °C
O=C(O)CNC(=O)[C@@H](CO)NC(=O)CNC(=O)CSC(=O)c1ccccc1 | 149 °C
CCCCc1nn(-c2ccccc2C(F)(F)F)c(=O)n1Cc1ccc(-c2ccccc2S(=O)(=O)NS(=O)(=O)C(F)(F)F)cc1 | 132 to 134 °C
CCCCCCCCCCCCCCCCCCNC(=O)OC[C@@H]1OCCC[C@H]1O (relative stereo) | 55 to 56 °C
O=S(=O)(c1ccc(C(CC2CCOCC2)c2ccc(-c3nnc(CO)s3)[nH]2)cc1)C1CC1 (stereo unspecified) | 208 to 209 °C
CCn1c(=O)c2c(nc(/C=C/c3ccc(OC)c(C)c3C)n2C)n(CC)c1=O | 208 °C
NCc1ccc(-c2ccc(N(Cc3ccccc3)Cc3ccccc3)cc2)cc1 | 122 to 125 °C
CN(C(=O)OC(C)(C)C)[C@H](Cc1ccc2ccccc2c1)C(=O)N1CCc2ccccc2C1 | 121 to 126 °C
CCOc1ccc2c(c1)CC(=O)N2C1CCCCO1 (stereo unspecified) | 108 to 110 °C
CCC(Oc1ccccc1F)C(=O)OC1CC(O)C=C2C=CC(C)C(CCC3CC(O)CC(=O)O3)C21 (mixture of isomers) | 136 to 138 °C
CCOC(=O)c1oc(-c2ccc(Cl)cc2)cc(=O)c1Br | 146 to 149 °C
Cn1nc(C(=O)NCc2ccc(Cl)cc2)c(=O)c2cc(C#CCCO)ccc21 | 227 to 229 °C
CCCN1CCn2c(=O)[nH]c3cccc(c32)C1C (stereo unspecified) | 124 °C
NC1N=C(c2ccccc2)C=CS1 (stereo unspecified) | 137 °C

SMILES | melting point
O=[N+]([O-])c1cc(C2=Nc3ccccc3SC2)cc(O)c1O | 302 to 304 °C
COC(=O)c1ccc(OCC(O)c2ccc3c(c2)C(C)(C)CCS3)cc1O (stereo unspecified) | 113 to 115 °C
Cc1cccc(C(=O)NCN2CCN(c3ccccn3)CC2)c1 | 141 to 143 °C
CCCCCCCN(CCc1ccc(OC(C)(C)C(=O)O)cc1)C(=O)Nc1ccc(OC)cc1OC | 95 to 96 °C
CC(C)(C)C(=O)Nc1ccc(Br)cn1 | 57 to 59 °C
N=C(NNC(=O)c1ccccc1)C(Cl)(Cl)Cl | 170 to 172 °C
N#Cc1ccc(C(=O)c2ccc(OC3OCC(O)C(O)C3O)cc2)cc1 (stereo unspecified) | 189 °C
CN1CCN(c2ccc(NC(=O)c3cc4ccccc4s3)cc2C#N)CC1 | 263 to 264 °C
CC(C)(C)OC(=O)N[C@H](Cc1ccccc1)C(=O)NCC(=O)OCc1ccccc1 | 133 to 134 °C
CCCCCCCCCC#CCCCCCCCCCCCO | 38 to 39 °C
O=Cc1cc([N+](=O)[O-])ccc1-c1ccccc1 | 79.5 °C
COc1ccc(/C=C/CCCCO)cc1 | 66 °C
CC(=O)N1CCc2sc(/C=C3/C(=O)N4C(C(=O)O)=CS[C@H]34)cc2C1 | 362 °C
COc1ccc(C(=C/C=C/C(=O)NCCCCCc2ccccn2)c2ccc(OC)cc2)cc1 | 99 to 100 °C
COc1ccc(CN2CCC(=C3c4ccc(Cl)cc4CCc4cccnc43)CC2)cn1 | 60.2 to 64.1 °C
ClC(c1ccccc1)c1cccnn1 (stereo unspecified) | 110 to 112 °C
C=C1CC(COc2cccc3cccnc23)(c2ccc(Cl)cc2)OC1=O (stereo unspecified) | 107 to 108 °C
O=C1NC(=O)c2c1c(I)cc1[nH]c3ccc(O)cc3c21 | > 350 °C
COc1cc2sc(-c3cccnc3)nc2cc1N=C=S | 164 to 166 °C
CN(C)C1(c2ccccc2)CCC(c2[nH]c3ccccc3c2CC2CCCCC2)CC1 (stereo unspecified) | 195 to 198 °C
COC(=O)C[C@@H]1C(=O)NC[C@H](Cc2cc(F)ccc2OC)C(=O)N1S(=O)(=O)c1ccc(Cl)cc1 | 73 to 76 °C
NSc1nc(-c2ccccc2Cl)ns1 | 143 to 145 °C
COc1ccc(CCOc2ccc(C(=O)N/C(=C\c3ccc(OCC(F)F)cc3)C(=O)NCCO)cc2)cc1 | 172 to 174 °C
O=C1Nc2ccc(Br)cc2C(c2ccccc2F)=NC1O (stereo unspecified) | 196 to 198 °C
CCOC(=O)Nc1nc(C)c(-c2nc3ccccc3c(=O)n2-c2ccc(C)cc2)s1 | 220 to 222 °C
OC1(C#CC2(F)C=CC(c3ccccc3)=CC2)CN2CCC1CC2 (stereo unspecified) | 232 to 233 °C

SMILES | melting point
COc1ccccc1-c1cc2c(ccn2C)c2c1C(=O)NC2=O | 243 to 245 °C
Cc1cc2cc(Nc3ccnc4cc(-c5ccc(CNCCCN(C)C)cc5)sc34)ccc2[nH]1 | 167 °C
CCc1nn(Cc2ccccn2)c(C(N)=O)c1NC(=O)c1cc(S(C)(=O)=O)ccc1OCC(C)C | 225 to 227 °C
O=C1NC(=O)c2ccccc2/C1=C/Nc1cccc(CN2CCCCCC2)c1 | 116 to 117 °C
CCCn1cc(C(=O)NCc2ccc(Cl)cc2)c(=O)c2cc(CCl)oc21 | 160 to 162 °C
CCCCCCCCc1ncc(-c2ccc(O)cc2)cn1 | 94 to 96 °C
CCOC(=O)c1ccn2nc(-c3ccccc3)cc2n1 | 180 to 181 °C
COC(=O)CNC(=O)c1cncc(F)c1 | 80 to 82 °C
CCOCc1nc2c(N)ncc(C)c2n1CCCCNS(C)(=O)=O | 173 to 175 °C
CSc1ccc(C=C2CCc3cc(OCCn4ccnc4)ccc3C2=O)cc1 | 161 to 162 °C
CN(CC(=O)Nc1ccc(Cl)cc1)C(=O)OC(C)(C)C | 126 to 128 °C
CC(C#CC1CC(Oc2ccc(F)cc2)C1)N(O)C(N)=O (stereo unspecified) | 125 to 127 °C
CN1C(=O)C(=Cc2ccc(O)c(C(C)(C)C)c2)SC1=S | > 230 °C
CC(=O)O[C@@H]1OCC[C@@H]1NC(=O)[C@H](CC(C)C)NC(=O)[C@H](CC(C)C)NC(=O)OCc1ccccc1 | 175 to 176 °C
ICCc1ccc2c(c1)OCO2 | 36 to 38 °C
CCOC(=O)c1cnc2ccc(CC)nc2c1Nc1ccc(OC)cc1 | 145 to 148 °C
CC(C)Nc1c(C#N)cnn1-c1ccc(Cl)c(Cl)c1Cl | 141 to 142 °C
c1csc(-c2cnc(COc3ccc(CCCn4ccnc4)cc3)s2)c1 | 82 to 84 °C
OCC(COCCCCCCCCOc1ccc(-c2ccccc2)cc1)OCc1ccccc1 (stereo unspecified) | 48 to 50 °C
COc1cccc(CNc2nccc(-c3cc(N4CCN(CCCN5CCCCC5)CC4)c4cc(OC)ccc4c3)n2)c1 | 63 to 75 °C
Cc1c(C(=O)O)oc2cc(-c3ccc(Cn4c(C)nc5ccccc54)cc3)ccc12 | 295 to 297 °C
COC(=O)CSCC1Cn2cc(C(=O)NCc3ccc(Cl)cc3)c(=O)c3cc(CN4CCOCC4)cc(c32)O1 (stereo unspecified) | 182 to 183 °C
CC1(C)Cc2cccc(Oc3c(Cl)cc(NC(=S)NC(=O)c4c(F)cccc4F)cc3Cl)c2O1 | 153 to 154 °C
Cc1oc2ccccc2c1C(=O)c1ccc(Cl)c(N)c1 | 103 °C
CN(CCOc1ccc(Cl)c2c1CC(=O)N2)c1cccs1 | 203 to 204 °C
CCCCCCCCCCC/C=C\c1c[nH]c(C(=O)OC)c1 | 51 to 52 °C

SMILES | melting point
CC(C)C(=O)c1ccc2cc(O)c(O)cc2c1 | 154 to 156 °C
CCOC(=O)c1ccc(-c2ccc(C#N)cc2)s1 | 133 to 134 °C
CCOC(=O)c1cn(C(C)C(=O)c2ccccc2)c2nc(-c3ccccc3)c(C)n2c1=O (stereo unspecified) | 177 to 178 °C
CCc1cc(=O)c(I)c(CC)[nH]1 | 225 to 227 °C
O=C(O)Cc1csc(Nc2ccc(Cl)c(C(F)(F)F)c2)n1 | 108 to 112 °C
CC12CCC3c4cccc([N+](=O)[O-])c4CCC3C1CCC2O (stereo unspecified) | 151 to 152 °C
Oc1ccc(-c2c3ccccc3cc3sc4cc(O)ccc4c23)cc1 | 197 to 199 °C
COc1ccc(S(N)(=O)=O)cc1C1CO1 (stereo unspecified) | 118 °C
Cc1ccc(-c2[nH]c(C(F)(F)F)nc2-c2ccc(S(C)(=O)=O)cc2)cc1 | 234 to 238 °C
Cc1nnc(NCCC2CCCN2C)c2cc3ccccn3c12 (stereo unspecified) | 169 °C
COC(=O)CCCCSCCCCCCCCCCCOS(=O)(=O)c1ccc(C)cc1 | 54 °C
COc1ccc2[nH]c(SCc3ncnc(N4CCOCC4)c3C)nc2c1 | 129 to 131 °C
COC(=O)C(NC(=O)OC(C)(C)C)c1ccc(OS(=O)(=O)C(F)(F)F)cc1 (stereo unspecified) | 67 to 67.6 °C
C#Cc1cc2c(Nc3ccc4[nH]ccc4c3)ncnc2cc1OC | 176 °C
COc1c(C)c(C)c(OC)c([N+](=O)[O-])c1[N+](=O)[O-] | 147 to 150 °C
Nc1cc(-c2ccccc2)n(-c2ccc(S(N)(=O)=O)cc2)n1 | 286 to 290 °C
O=C1CC(=O)CC(c2ccc(Cl)c(Cl)c2)C1 | 198 to 200 °C
Cc1c(C)c2c(c(C)c1NC(=O)CC(C)(C)C)C(c1cccc(C3OCCO3)c1)CO2 (stereo unspecified) | 168 to 169 °C
COC(=O)c1ccc(N=Cc2cccc(Cl)c2)cn1 | 139 to 142 °C
O=c1cc(C=Cc2ccc(O)cc2)oc(-c2ccccc2)c1 | 198 to 201 °C
Cc1cn(C(=O)OC(C)(C)C)c2ccc(Br)cc12 | 92 °C
COc1c(Cl)cc(F)cc1C1OC(=O)NC1=O (stereo unspecified) | 177 to 179 °C
O=C1Nc2cccc(F)c2C12COc1cc3c(cc12)OCCO3 (stereo unspecified) | 282 to 285 °C
